Data: US20250281424A1 (New York Blood Center, Inc, priority 2020, published 2025)
In brackets after ≈: the same amount, converted by molar mass. Read-outs that look alike come from different tables or passages of the source. Values belong to the compound of their own block, whether it stands above or below them.

Experiments:
[1] = Experimentally determined pKa; type: physicochemical
[2] = Cytotoxicity NIH3T3 (MTS reduction); type: cell-based; settings: mouse, NIH3T3 cells, 1 hour exposure in the absence of serum, N = 3, read-out: Cytotox NIH3T3 EC50
P450 3A4 (midazolam) = P450 3A4 (midazolam) (Homo sapiens, UniProt P08684); assay: P450 inhibition 3A4 (midazolam); type: in vitro ADME
Procedure: (§1) Certain exemplified compounds were examined for ADMET (absorption, distribution, metabolism, excretion and toxicity) profiling using conventional assays with the results shown in the Tables 3A-3C below.
(§2) Examples 1 and 3 were evaluated as inhibitors of the five P450s that are the source of most DDI issues. […] The tested compounds meet drug property criteria for IV administration.

[3] = Experimentally determined log D; type: physicochemical
P450 1A2 = biological target: T1, P450 1A2 (Homo sapiens, UniProt P05177); assay: P450 inhibition 1A2; type: in vitro ADME
T1 sequence (P05177 1-516): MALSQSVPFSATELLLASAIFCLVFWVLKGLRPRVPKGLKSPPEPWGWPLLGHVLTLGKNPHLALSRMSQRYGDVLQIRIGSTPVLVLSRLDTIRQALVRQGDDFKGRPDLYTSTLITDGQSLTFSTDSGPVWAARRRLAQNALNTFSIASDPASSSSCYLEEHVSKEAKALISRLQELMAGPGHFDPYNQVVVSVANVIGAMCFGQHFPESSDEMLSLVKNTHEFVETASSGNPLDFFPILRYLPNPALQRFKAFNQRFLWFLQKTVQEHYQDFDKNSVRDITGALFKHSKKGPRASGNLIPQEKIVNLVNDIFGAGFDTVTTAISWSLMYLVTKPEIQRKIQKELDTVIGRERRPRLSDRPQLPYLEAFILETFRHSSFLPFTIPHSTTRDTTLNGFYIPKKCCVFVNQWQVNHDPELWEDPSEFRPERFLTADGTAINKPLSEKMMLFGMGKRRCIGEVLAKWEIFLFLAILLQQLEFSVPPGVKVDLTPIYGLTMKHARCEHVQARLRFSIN
Procedure: as §1, §2

[4] = biological target: human Ether-à-go-go-Related Gene (hERG) (Homo sapiens, UniProt Q12809); assay: hERG patch clamp assay; type: in vitro ADME; settings: for hERG inhibition: 30 μM concentration, patch clamp
Procedure: as §1, §2

[5] = Pharmacokinetics after IV bolus in CD-1 mice; type: in vivo
Procedure: PK parameters were measured and reported in Table 4 as follows: C0 represents concentration in ng/ml at t=0 min; AUC0-last represents area under the curve for t=0 min to last time point; AUC0-∞ represents area under the curve for t=0 min to infinity.

P450 2D6 = P450 2D6 (Homo sapiens, UniProt P10635); assay: P450 inhibition 2D6; type: in vitro ADME
Procedure: as §1, §2

[6] = Human microsome stability; type: in vitro ADME; settings: for half-life at 0.5 μM / microsomal CLint at 0.5 μM: Human microsomes, compound conc = 0.5 μM, n = 1; for half-life at 0.5 μM: read-out: Human microsome stability Half life t1/2; for microsomal CLint at 0.5 μM: read-out: Human microsome stability Intrinsic Clearance Clint (ml/min/mg protein); for intrinsic clearance in human microsome assay / stability in human microsome assay: human microsomes
Text: as §1

Heparin-PF4-KKO mice = assay: In vivo activity, heparin-PF4-KKO induced thrombocytopenia (mouse model of HIT)
Procedure: Heparin-PF4-KKO mice that were induced to thrombocytopenia were administered the compound of Example 1. The dosing regimen was guided by the PK results in Table 4 (see Example A6). At T0hr, 5 mg/kg of Compound 1 was given by retro-orbital injection. 1000 units/kg heparin was injected subcutaneously at T3hr. At T4hr, 20 mg/kg of KKO antibody was administered by retro-orbital injection. Also at T4hr, an additional 5 mg/kg of the compound was injected intraperitoneally. Platelet count was measured at T8hr.

[7] = Kinetic solubility pH 7.4; type: physicochemical
Text: as §1

P450 2C9 = P450 2C9 (Homo sapiens, UniProt P11712); assay: P450 inhibition 2C9; type: in vitro ADME
Procedure: as §1, §2

P450 2C19 = P450 2C19 (Homo sapiens, UniProt P33261); assay: P450 inhibition 2C19; type: in vitro ADME
Procedure: as §1, §2

[8] = Plasma protein binding (PPB, mouse); type: in vitro ADME; settings: mouse, plasma; read-out: PPB mouse (% bound) (converted)
Text: as §1

plasma protein = assay: Plasma protein binding (PPB, mouse); type: in vitro ADME
Text: as §1

[9] = mouse, plasma, CD-1 mice, 1 mg/kg IV bolus
[10] = pH 7.4, aqueous buffer, kinetic from dmso stock

Chain of P450 2C19 (P33261 whole entry): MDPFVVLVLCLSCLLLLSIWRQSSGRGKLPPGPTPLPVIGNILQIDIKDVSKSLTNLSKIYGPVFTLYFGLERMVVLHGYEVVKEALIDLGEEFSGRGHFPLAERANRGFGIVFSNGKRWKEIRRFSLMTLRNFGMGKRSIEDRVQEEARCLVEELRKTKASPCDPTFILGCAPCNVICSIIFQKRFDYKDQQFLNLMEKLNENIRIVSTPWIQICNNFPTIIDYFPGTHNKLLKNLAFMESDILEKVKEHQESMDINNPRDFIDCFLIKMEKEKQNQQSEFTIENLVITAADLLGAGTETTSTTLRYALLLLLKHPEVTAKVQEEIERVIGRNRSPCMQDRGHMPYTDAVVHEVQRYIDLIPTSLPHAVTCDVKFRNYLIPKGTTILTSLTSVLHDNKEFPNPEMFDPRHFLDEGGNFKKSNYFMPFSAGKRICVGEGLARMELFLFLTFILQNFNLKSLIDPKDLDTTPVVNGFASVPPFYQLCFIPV
Chain of P450 3A4 (midazolam) (P08684 whole entry): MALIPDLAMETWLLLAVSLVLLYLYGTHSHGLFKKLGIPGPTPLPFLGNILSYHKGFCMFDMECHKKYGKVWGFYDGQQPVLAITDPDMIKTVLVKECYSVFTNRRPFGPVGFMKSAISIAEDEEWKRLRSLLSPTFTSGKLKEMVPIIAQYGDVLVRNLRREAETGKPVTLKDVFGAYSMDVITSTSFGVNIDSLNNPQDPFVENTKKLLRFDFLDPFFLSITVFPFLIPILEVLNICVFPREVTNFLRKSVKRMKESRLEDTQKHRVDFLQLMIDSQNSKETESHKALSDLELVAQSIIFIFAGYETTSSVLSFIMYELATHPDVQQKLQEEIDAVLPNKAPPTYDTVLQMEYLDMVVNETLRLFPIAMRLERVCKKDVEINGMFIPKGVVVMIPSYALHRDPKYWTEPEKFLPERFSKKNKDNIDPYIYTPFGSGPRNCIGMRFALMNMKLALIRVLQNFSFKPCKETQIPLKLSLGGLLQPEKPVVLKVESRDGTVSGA
Chain of P450 2C9 (P11712 whole entry): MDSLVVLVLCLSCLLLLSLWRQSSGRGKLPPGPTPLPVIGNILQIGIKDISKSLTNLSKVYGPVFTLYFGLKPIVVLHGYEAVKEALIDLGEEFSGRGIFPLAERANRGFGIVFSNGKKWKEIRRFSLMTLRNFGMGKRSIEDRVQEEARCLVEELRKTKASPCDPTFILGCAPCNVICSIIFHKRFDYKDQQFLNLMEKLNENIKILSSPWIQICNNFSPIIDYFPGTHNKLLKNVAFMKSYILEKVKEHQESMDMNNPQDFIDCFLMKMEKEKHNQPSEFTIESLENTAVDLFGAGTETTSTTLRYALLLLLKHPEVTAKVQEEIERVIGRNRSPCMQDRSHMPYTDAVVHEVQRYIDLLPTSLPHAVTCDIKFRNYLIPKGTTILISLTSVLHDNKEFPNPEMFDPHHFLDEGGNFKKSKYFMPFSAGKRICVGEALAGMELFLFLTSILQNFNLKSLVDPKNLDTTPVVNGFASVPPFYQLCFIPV
Chain of P450 2D6 (P10635 whole entry): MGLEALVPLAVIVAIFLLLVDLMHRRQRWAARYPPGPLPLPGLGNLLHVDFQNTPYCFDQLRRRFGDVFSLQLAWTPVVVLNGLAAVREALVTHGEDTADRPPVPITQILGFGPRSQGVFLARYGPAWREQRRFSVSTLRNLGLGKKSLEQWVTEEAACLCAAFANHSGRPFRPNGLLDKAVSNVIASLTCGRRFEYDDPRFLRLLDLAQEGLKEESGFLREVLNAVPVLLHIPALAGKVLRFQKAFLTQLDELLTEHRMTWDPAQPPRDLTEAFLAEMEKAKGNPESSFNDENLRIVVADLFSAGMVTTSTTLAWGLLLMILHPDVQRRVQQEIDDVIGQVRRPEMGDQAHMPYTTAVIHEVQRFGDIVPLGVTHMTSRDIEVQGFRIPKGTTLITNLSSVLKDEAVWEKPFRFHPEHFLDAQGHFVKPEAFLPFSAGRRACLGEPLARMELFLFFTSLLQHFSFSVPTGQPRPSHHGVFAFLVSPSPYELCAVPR
Chain of human Ether-à-go-go-Related Gene (hERG) (Q12809 whole entry): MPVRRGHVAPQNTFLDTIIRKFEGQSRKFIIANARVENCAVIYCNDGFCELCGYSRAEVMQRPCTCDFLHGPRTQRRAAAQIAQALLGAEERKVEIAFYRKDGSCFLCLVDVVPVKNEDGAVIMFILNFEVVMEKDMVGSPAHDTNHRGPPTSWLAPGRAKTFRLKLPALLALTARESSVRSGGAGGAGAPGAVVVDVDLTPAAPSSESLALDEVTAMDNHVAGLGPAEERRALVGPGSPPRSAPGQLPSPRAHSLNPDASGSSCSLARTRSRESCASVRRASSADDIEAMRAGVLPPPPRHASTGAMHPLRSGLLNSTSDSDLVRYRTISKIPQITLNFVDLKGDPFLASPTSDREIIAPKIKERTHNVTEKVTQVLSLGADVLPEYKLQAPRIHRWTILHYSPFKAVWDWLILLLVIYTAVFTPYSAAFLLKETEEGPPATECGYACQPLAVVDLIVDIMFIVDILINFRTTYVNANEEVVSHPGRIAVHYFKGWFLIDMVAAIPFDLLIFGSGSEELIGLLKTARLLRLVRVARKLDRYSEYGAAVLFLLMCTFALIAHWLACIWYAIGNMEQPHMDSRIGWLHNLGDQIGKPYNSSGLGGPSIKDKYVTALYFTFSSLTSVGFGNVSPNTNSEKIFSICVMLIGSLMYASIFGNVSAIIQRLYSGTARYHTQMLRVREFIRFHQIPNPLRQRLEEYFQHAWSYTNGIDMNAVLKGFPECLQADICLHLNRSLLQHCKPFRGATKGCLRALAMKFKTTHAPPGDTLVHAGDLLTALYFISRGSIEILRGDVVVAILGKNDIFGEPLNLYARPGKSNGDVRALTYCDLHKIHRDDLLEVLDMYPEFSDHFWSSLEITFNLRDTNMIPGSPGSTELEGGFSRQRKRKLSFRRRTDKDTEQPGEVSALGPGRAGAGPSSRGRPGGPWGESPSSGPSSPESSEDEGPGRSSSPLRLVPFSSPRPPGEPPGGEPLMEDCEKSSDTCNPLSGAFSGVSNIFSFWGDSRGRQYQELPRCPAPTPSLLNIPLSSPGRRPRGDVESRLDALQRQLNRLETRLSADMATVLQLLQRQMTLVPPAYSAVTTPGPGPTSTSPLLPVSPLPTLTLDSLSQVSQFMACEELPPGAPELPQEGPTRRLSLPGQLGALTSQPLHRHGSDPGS

Structure (SMILES): CC(=O)C1C(=O)c2ccc(C(=O)c3ccc4c(c3)C(=O)C(C(C)=O)C4=O)cc2C1=O (stereo not shown) [Example 1, 5,5′-carbonylbis(2-acetyl-1h-indene-1,3(2h)-dione)]
pKa [1]: 1.99
EC50 at 1 h [2]: > 1000 µg/mL
IC50 (P450 3A4 (midazolam)): > 100 µM
inhibition of P450 3A4 midazolam (P450 3A4 (midazolam)): no inhibition
logD [3]: 0.53
IC50 (P450 1A2): 46.7 µM
inhibition of P450 1A2 (P450 1A2): moderate inhibition
IC50 [4]: > 30 µM
hERG inhibition [4]: no significant inhibition
time the concentration was sustained above 1 μM ([5]; 1 mg/kg, CD-1 mice (FIG. 5)): greater than 4 hours
clearance ([5]; CD-1 mice, 1 mg/kg IV): low clearance
half-life ([5]; CD-1 mice, 1 mg/kg IV): long half-life
volume of distribution ([5]; CD-1 mice, 1 mg/kg IV): low clearance and volume of distribution
AUC(0-inf) [5, 9]: 9350 ± 778 ng·h/mL
AUC(0-t) [5, 9]: 9190 ± 704 ng·h/mL
half-life ([5]; mouse, plasma, CD-1 mice, 1 mg/kg IV bolus, average of 3 mice, read-out: t1/2 (converted)): 4.59 ± 0.584 h
C0 ([5]; mouse, plasma, CD-1 mice, 1 mg/kg IV bolus, concentration at t=0 min): 15100 ± 2070 ng/mL
clearance ([5]; mouse, plasma, CD-1 mice, 1 mg/kg IV bolus, read-out: Clearance): 1.79 ± 0.147 mL/min/kg
Vd ([5]; mouse, plasma, CD-1 mice, 1 mg/kg IV bolus, read-out: Volume of distribution (Vdss)): 0.448 ± 0.0121 L/kg
IC50 (P450 2D6): > 100 µM
inhibition of P450 2D6 (P450 2D6): no inhibition
half-life at 0.5 μM [6]: 1.44 h
microsomal CLint at 0.5 μM [6]: 15.8 mL/min/mg
intrinsic clearance in human microsome assay [6]: low intrinsic clearance
stability in human microsome assay [6]: excellent stability
tolerability (Heparin-PF4-KKO mice; mice, 5 mg/kg IV and IP doses): tolerated the 5 mg/kg IV and IP doses of the compound well
heparin-PF4-KKO induced thrombocytopenia in vivo (Heparin-PF4-KKO mice; mouse model of HIT (FIG. 4)): reduces heparin-PF4-KKO induced thrombocytopenia in vivo
platelet counts at 4 hr, remaining mouse (Heparin-PF4-KKO mice; one of the four mice): only a little higher than DMSO controls
platelet counts 4 hr after KKO administration (Heparin-PF4-KKO mice; three of the four mice, 5 mg/kg retro-orbital at T0hr + 5 mg/kg IP at T4hr): > 80 % of baseline
solubility kinetic ([7]; pH 7.4): >200 µM
solubility kinetic [7, 10]: > 200 µM
IC50 (P450 2C9): 31.9 µM
inhibition of P450 2C9 (P450 2C9): only moderate inhibition
IC50 (P450 2C19): > 100 µM
inhibition of P450 2C19 (P450 2C19): no inhibition

fraction unbound [8]: 0.043
protein binding (plasma protein): high protein binding
inhibition of P450 3A4 midazolam (P450 3A4 (midazolam)): no inhibition
IC50 (P450 3A4 (midazolam); midazolam, read-out: P450 Inhibition IC50 3A4 (midazolam)): > 100 µM
IC50 (P450 1A2): > 100 µM
inhibition of P450 2D6 (P450 2D6): no inhibition
IC50 (P450 2D6; read-out: P450 Inhibition IC50 2D6): > 100 µM
half-life at 0.5 μM [6]: > 2.42 h
microsomal CLint at 0.5 μM [6]: < 9.5 mL/min/mg
intrinsic clearance in human microsome assay [6]: low intrinsic clearance
stability in human microsome assay [6]: excellent stability
aqueous solubility [7]: good aqueous solubility
solubility kinetic [7, 10]: 88.2 µM (≈ 40.8 µg/mL)
inhibition of P450 2C9 (P450 2C9): only moderate inhibition
IC50 (P450 2C9; read-out: P450 Inhibition IC50 2C9): 16.7 µM
inhibition of P450 2C19 (P450 2C19): no inhibition
IC50 (P450 2C19; read-out: P450 Inhibition IC50 2C19): > 100 µM
Structure (SMILES): CCOC(=O)C1C(=O)c2ccc(C(=O)c3ccc4c(c3)C(=O)C(C(=O)OCC)C4=O)cc2C1=O (stereo not shown) [Example 3, diethyl 5,5′-carbonylbis(1,3-dioxo-2,3-dihydro-1h-indene-2-carboxylate)]
EC50 at 1 h [2]: > 500 µg/mL
hERG inhibition [4]: no significant inhibition
IC50 ([4]; read-out: hERG IC50): > 30 µM
